# Assay results published in patent publication US20200390742A1, “CLINICALLY EFFICACIOUS ANTI-METHANOGENIC COMPOSITIONS AND USES” (Cedars-Sinai Medical Center, priority 2016, published 2020).
# Like-named read-outs stand apart in the source and are kept apart here. Marks after values point to notes of the source that are not given here. Peptide text beside a SMILES is read from it.
# Experiments:
# [1] = pylorus-ligated rats, within 30 minutes; cited from earlier work
# [2] = test system: M. smithii; experiment: M. smithii colonized high-fat diet rats, qPCR of bowel segments; type: in vivo, Sprague-Dawley rats
# Description: The rats were assessed for increased M. smithii by qPCR before and after the diet, and then divided into 3 groups. […] Each group was gavaged daily for 10 days. Three day stool collections were performed to assess average stool wet weight and daily variability prior to commencing the high fat diet, after 7 weeks of high-fat diet, and the final days of the lovastatin gavage (still on high-fat diet). On day 10 of the gavage, rats were euthanized and DNA was extracted from contents of ligated bowel segments (duodenum, jejunum, ileum, cecum and left colon). qPCR was performed using primers for total luminal bacteria and M. smithii.
# [3] = physchem; conditions: for solubility: Solubility (room temp)
# Description: Lovastatin was produced, analyzed and released using methodology known in the art.
# [4] = cited from earlier work
# [5] = Binary stress testing of lovastatin with formulation excipients (HPLC); conditions: alone, over a range of conditions
# Description: The compatibility of lovastatin drug substance with formulation excipients was evaluated in binary stress testing studies where 1:1 mixtures of lovastatin and each excipient were stored for 7 days under different conditions of temperature and relative humidity (RH). Samples were analyzed by HPLC (based on USP methods) at day 0 and day 7.
# [6] = test system: methane production by stool samples from IBS-C patients; experiment: Methane production by human stool in vitro; type: cell-based
# Description: Data are change from baseline (ΔCH4 ppm) in headspace methane. […] Error bars are SD. P values are significance of change from baseline (paired t-test).
# The second principle, without wishing to be bound by theory, is to reduce the pre-systemic conversion of lovastatin lactone to the β-hydroxyacid metabolite. […] Conversion of lovastatin lactone to β-hydroxyacid occurs in stomach acid and through the action of plasma, intestinal and liver esterases; some conversion may also be catalysed by intestinal bacteria.
# The potential methane-reducing effect of lovastatin lactone concentrations in the stool of healthy volunteers was estimated by comparison of stool concentrations to lovastatin lactone concentrations used to inhibit methane production in stool samples from an IBS-C patient in vitro.
# [7] = test system: human and rat fecal bacterial enzyme fractions; conditions: 12 h incubation; cited from earlier work
# [8] = cited from earlier work; remark: listed apart in the source
# [9] = test system: IBS-C patients; conditions: published trial, 12 weeks; drug arm; cited from earlier work
# [10] = Cecum, 1.5 mg/rat daily for 10 days
# [11] = Duodenum, 1.5 mg/rat gavage daily for 10 days
# [12] = Jejunum, 1.5 mg/rat daily for 10 days
# [13] = Left Colon, 1.5 mg/rat daily for 10 days
# [14] = stool samples from IBS-C patients in vitro
smiles,measurement,setting,value
CC[C@H](C)C(=O)O[C@H]1C[C@@H](C)C=C2C=C[C@H](C)[C@H](CC[C@@H]3C[C@@H](O)CC(=O)O3)[C@H]21 [Lovastatin],intragastric dose exiting the gastric juice,[1],~30%
same,M. smithii/Total Bacteria,[2]; [10],0.20
same,M. smithii/Total Bacteria,[2]; [11],1.30
same,M. smithii/Total Bacteria,"[2]; Ileum, 1.5 mg/rat daily for 10 days, listed as Lactone",0.19*
same,M. smithii/Total Bacteria,"[2]; Ileum, 1.5 mg/rat daily for 10 days, listed as lovastatin lactone",reduced
same,M. smithii/Total Bacteria,[2]; [12],0.12
same,M. smithii/Total Bacteria,[2]; [13],0.0029
same,Solubility (room temp),[3],methanol 28 mg/mL
same,solubility,[3]; organic solvent or mixture,16 mg/mL
same,solubility,[3]; water,0.0004 mg/mL
same,pre-portal hydrolysis in vivo after oral administration,[4],~10%
same,stability in binary stress testing,[5],stable
same,inhibition of methane AUC0-270,"[6]; 0.2 mg/g stool, regression",85-90%
same,methane AUC0-270 as percentage of the control value,"[6]; 0.2 mg/g stool, regression",10-15%
same,reduction of methane production,"[6]; lovastatin lactone 0.04 mg/g stool, human stool in vitro",~60%
same,inhibition of methane production,"[6]; lovastatin lactone 0.21-0.25 mg/g stool, in vitro",~90%
same,inhibition of methane production,[6]; [14],only effective statin inhibitor
same,loss of lovastatin lactone,[7],8-19%
same,absorption of orally-administered dose,"[8]; human subjects, immediate release dosage form",~31%
CC(C)c1nc(N(C)S(C)(=O)=O)nc(-c2ccc(F)cc2)c1/C=C/[C@@H](O)C[C@@H](O)CC(=O)O [rosuvastatin],inhibition of methane production,[6]; [14],ineffective
CC(C)c1c(C(=O)Nc2ccccc2)c(-c2ccccc2)c(-c2ccc(F)cc2)n1CC[C@@H](O)C[C@@H](O)CC(=O)O [atorvastatin],inhibition of methane production,[6]; [14],ineffective
CCCCC(F)(F)[C@@]1(O)CC[C@H]2[C@@H](CC(=O)[C@@H]2CCCCCCC(=O)O)O1 [Lubiprostone],"Abdominal Pain Response, % Subjects",[9],36.7 (25.2) %
same,"Bloating Response, % Subjects",[9],32.0 (25.1) %
same,"Overall Response, % Subjects",[9],26.3 (15.3) %
"C[C@@H]1NC(=O)[C@@H]2CCCN2C(=O)[C@H](CC(N)=O)NC(=O)[C@@H]2CSSC[C@H](N)C(=O)N[C@H]3CSSC[C@H](NC1=O)C(=O)N[C@@H]([C@@H](C)O)C(=O)NCC(=O)N[C@H](C(=O)N[C@@H](Cc1ccc(O)cc1)C(=O)O)CSSC[C@H](NC(=O)[C@H](Cc1ccc(O)cc1)NC(=O)[C@H](CCC(=O)O)NC3=O)C(=O)N2 [Linaclotide] (HELM PEPTIDE1{C.C.E.Y.C.C.N.P.A.C.T.G.C.Y}$PEPTIDE1,PEPTIDE1,1:R3-6:R3|PEPTIDE1,PEPTIDE1,2:R3-10:R3|PEPTIDE1,PEPTIDE1,5:R3-13:R3$$$V2.0)","Abdominal Pain Response, % Subjects",[9],49.5 (36.0) %
same,"Bloating Response, % Subjects",[9],43.2 (26.8) %
same,"CSBM Response, % Subjects",[9],48.2 (26.1) %
same,"Diarrhea Incidence, % Subjects",[9],19.3 (2.8) %
same,"Overall Response, % Subjects",[9],33.6 (17.4) %
CN1Cc2c(Cl)cc(Cl)cc2[C@H](c2cccc(S(=O)(=O)NCCOCCOCCNC(=O)NCCCCNC(=O)NCCOCCOCCNS(=O)(=O)c3cccc([C@@H]4CN(C)Cc5c(Cl)cc(Cl)cc54)c3)c2)C1 [Tenapanor],"Abdominal Pain Response, % Subjects",[9],65.5 (48.3) %
same,"Bloating Response, % Subjects",[9],59.5 (41.6) %
same,"CSBM Response, % Subjects",[9],60.7 (33.7) %
same,"Diarrhea Incidence, % Subjects",[9],11.2 (0.0) %
same,"Overall Response, % Subjects",[9],50.0 (23.6) %
"CC(C)C[C@H](NC(=O)[C@@H]1CSSC[C@@H]2NC(=O)[C@H](CC(C)C)NC(=O)[C@H](CCC(=O)O)NC(=O)[C@@H](NC(=O)[C@H](CCC(=O)O)NC(=O)[C@H](CC(=O)O)NC(=O)[C@@H](N)CC(N)=O)CSSC[C@H](NC(=O)[C@H](C)NC(=O)[C@H](C(C)C)NC(=O)[C@H](CC(N)=O)NC(=O)[C@H](C(C)C)NC2=O)C(=O)N[C@@H]([C@@H](C)O)C(=O)NCC(=O)N1)C(=O)O [Plecanatide] (HELM PEPTIDE1{N.D.E.C.E.L.C.V.N.V.A.C.T.G.C.L}$PEPTIDE1,PEPTIDE1,4:R3-12:R3|PEPTIDE1,PEPTIDE1,7:R3-15:R3$$$V2.0)","Diarrhea Incidence, % Subjects",[9],4.3 (1.0) %
same,"Overall Response, % Subjects",[9],25.7 (15.9) %
CC[C@H](C)C(=O)O[C@H]1C[C@@H](C)C=C2C=C[C@H](C)[C@H](CC[C@@H](O)C[C@@H](O)CC(=O)O)[C@H]21 [lovastatin β-hydroxyacid],intragastric dose exiting the gastric juice,[1],~30%
same,M. smithii/Total Bacteria,[2]; [10],0.14
same,M. smithii/Total Bacteria,[2]; [11],1.41
same,M. smithii/Total Bacteria,[2]; [12],0.29
same,M. smithii/Total Bacteria,[2]; [13],0.0024
same,inhibition of methane production,[6]; [14],ineffective
same,absorption of orally-administered dose,"[8]; human, in vivo, po",82-100%
